Measured values published in patent US20240116985A1, “STAPLED PEPTIDES AND METHODS THEREOF” (priority 2020, published 2024).
Read-outs that look alike come from different tables or passages of the source.

What was measured:
[1] = target: T1, full-length beta-Catenin (Uniprot ID P35222) (Homo sapiens, UniProt P35222); test: Fluorescence polarization IC50 (beta-catenin / 5FAM-TCF4 10-53 competition); type: binding; settings: fluorescence polarization
T1 construct: 10 nM full-length beta-Catenin (Uniprot ID P35222)
T1 sequence (P35222 1-781): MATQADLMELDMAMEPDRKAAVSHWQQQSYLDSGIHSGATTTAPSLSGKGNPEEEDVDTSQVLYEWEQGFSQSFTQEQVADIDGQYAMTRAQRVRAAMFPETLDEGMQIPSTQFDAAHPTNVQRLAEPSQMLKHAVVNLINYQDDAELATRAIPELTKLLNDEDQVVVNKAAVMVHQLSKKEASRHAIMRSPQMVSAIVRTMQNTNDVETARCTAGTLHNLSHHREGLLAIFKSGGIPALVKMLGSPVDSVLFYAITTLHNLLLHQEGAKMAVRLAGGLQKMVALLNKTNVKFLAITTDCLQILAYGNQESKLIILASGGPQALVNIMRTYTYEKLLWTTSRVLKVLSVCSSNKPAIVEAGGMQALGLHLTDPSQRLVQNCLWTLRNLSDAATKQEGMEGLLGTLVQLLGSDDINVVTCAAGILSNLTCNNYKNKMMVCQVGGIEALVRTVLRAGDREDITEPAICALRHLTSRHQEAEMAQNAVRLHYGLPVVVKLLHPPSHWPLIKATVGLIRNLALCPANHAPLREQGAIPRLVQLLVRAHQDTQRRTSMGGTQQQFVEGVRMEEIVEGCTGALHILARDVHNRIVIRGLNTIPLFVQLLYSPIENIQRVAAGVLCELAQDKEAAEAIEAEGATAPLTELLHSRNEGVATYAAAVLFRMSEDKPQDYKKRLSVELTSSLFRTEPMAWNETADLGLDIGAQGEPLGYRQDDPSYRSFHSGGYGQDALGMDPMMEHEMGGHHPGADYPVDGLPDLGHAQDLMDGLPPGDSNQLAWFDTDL

[2] = target: T2, beta-catenin/TCF4 engagement (Homo sapiens, UniProt P35222); test: Nano-BRET target engagement assay (B-cat-Halo & TCF4-Luc in HEK293 cells); type: cell-based; settings: read-out: NanoBRET Abs IC50
T2 construct: expressed in transfected cells; host or cells: HEK293
T2 sequence (P35222 1-781): T1 sequence (P35222 1-781)

Row | Compound | IC50 ([1]; read-out: beta-Catenin FP IC50) [nM] | IC50 ([2]; absolute IC50) [µM] | IC50 [2] [µM] | IC50 ([1]; beta-catenin, read-out: FP EC50) [nM]
1 | CC(=O)N1CCC[C@]12CC=CCCCC1(CCCC=CCCCOC(=O)N3CC[C@@](C(=O)N[C@@H](Cc4ccccc4Cl)C(=O)N[C@@H](Cc4csc5ccccc45)C(=O)N[C@@H](CCC(N)=O)C(N)=O)(C3)NC(=O)[C@H](CC(N)=O)NC(=O)[C@H](Cc3ccccc3)NC(=O)[C@H](C)NC(=O)[C@H](C)NC(=O)[C@H](CC(=O)O)NC(=O)[C@H](CC(=O)O)NC1=O)NC(=O)[C@H](CC(C)(C)C)NC(=O)[C@H](CC(=O)S)NC2=O (stereo partly drawn) [I-1722, Ac-PL3-AspSH-Npg-B5-Asp-Asp-Ala-Ala-Phe-Asn-PyrS2-2C1F-BztA-Gln-NH2] | 135 | > 20 |  | 
2 | CC(=O)N1CCC[C@]12CC=CCCCC1(CCCC=CCCCOC(=O)N3CC[C@@](C(=O)N[C@@H](Cc4ccsc4)C(=O)N[C@@H](Cc4csc5ccccc45)C(=O)N[C@@H](C)C(N)=O)(C3)NC(=O)[C@H](CC(C)C)NC(=O)[C@H](Cc3ccccc3)NC(=O)[C@@H](C)NC(=O)[C@H](C)NC(=O)[C@H](Cc3cccc(C(=O)O)c3)NC(=O)[C@H](CC(=O)O)NC1=O)NC(=O)[C@H](CC(C)(C)C)NC(=O)[C@H](CC(=O)O)NC2=O (stereo partly drawn) [I-2097, Ac-PL3-Asp-Npg-B5-Asp-3COOHF-Ala-dAla-Phe-Leu-PyrS2-3Thi-BztA-Ala-NH2] | 23 |  | 22.3 | 
3 | CC(=O)N1CCC[C@]12CC=CCCCC1(CCCC=CCCCOC(=O)N3CC[C@@](C(=O)N[C@@H](Cc4ccsc4)C(=O)N[C@@H](Cc4csc5ccccc45)C(=O)N[C@@H](CCC(N)=O)C(N)=O)(C3)NC(=O)[C@H](CC(C)C)NC(=O)[C@H](Cc3ccccc3)NC(=O)[C@H](C)NC(=O)[C@H](C)NC(=O)[C@H](CN(CC(=O)O)C(=O)C3CCN(C)CC3)NC(=O)[C@H](CC(=O)O)NC1=O)NC(=O)[C@H](CC(C)(C)C)NC(=O)[C@H](CC(=O)O)NC2=O (stereo partly drawn) [I-2235, Ac-PL3-Asp-Npg-B5-Asp-[4AcMePip]GA-Ala-Ala-Phe-Leu-PyrS2-3Thi-BztA-Gln-NH2] | 40 | > 20 |  | 
4 | CCCC[C@@H]1NC(=O)[C@H](Cc2ccccc2)NC(=O)[C@H](C)NC(=O)C(C)(C)NC(=O)[C@H](Cc2cccc(C(=O)O)c2)NC(=O)[C@H](CC(=O)O)NC(=O)C2(CCCC=CCCCOC(=O)N3CC[C@@](C(=O)N[C@@H](Cc4ccsc4)C(=O)N[C@@H](Cc4csc5ccccc45)C(=O)N[C@@H](CCC(=O)N(CCOC)CCOC)C(N)=O)(C3)NC1=O)CCCC=CC[C@]1(CCCN1C(C)=O)C(=O)N[C@@H](CC(=O)O)C(=O)N[C@@H](CC(C)(C)C)C(=O)N2 (stereo partly drawn) [I-2554, Ac-PL3-Asp-Npg-B5-Asp-3COOHF-Aib-Ala-Phe-nLeu-PyrS2-3Thi-BztA-[bismethoxyethylamine]GlnR-NH2] | 8 | 3.3 |  | 
5 | CC(=O)N1CCC[C@]12CC=CCCCC1(CCCC=CCCCOC(=O)N3CC[C@@](C(=O)N[C@@H](Cc4ccsc4)C(=O)N[C@@H](Cc4csc5ccccc45)C(=O)N[C@@H](C)C(N)=O)(C3)NC(=O)[C@H](CC(C)C)NC(=O)[C@H](Cc3ccccc3)NC(=O)[C@H](C)NC(=O)[C@H](CO)NC(=O)[C@H](Cc3cccc(C(=O)O)c3)NC(=O)[C@H](CC(=O)O)NC1=O)NC(=O)[C@H](CC(C)(C)C)NC(=O)[C@H](CC(=O)O)NC2=O (stereo partly drawn) [I-2050, Ac-PL3-Asp-Npg-B5-Asp-3COOHF-Ser-Ala-Phe-Leu-PyrS2-3Thi-BztA-Ala-NH2] | 9 |  | 4.9 | 
6 | CC(=O)N1CCC[C@]12CC=CCCCC1(CCCC=CCCCOC(=O)N3CC[C@@](C(=O)N[C@@H](Cc4ccsc4)C(=O)N[C@@H](Cc4csc5ccccc45)C(=O)N[C@@H](CCC(N)=O)C(N)=O)(C3)NC(=O)[C@H](CC(C)C)NC(=O)[C@H](Cc3ccccc3)NC(=O)[C@H](C)NC(=O)[C@H](C)NC(=O)[C@H](CC(=O)O)NC(=O)[C@H](CC(=O)O)NC1=O)NC(=O)[C@H](CC(N)=O)NC(=O)[C@H](CC(=O)O)NC2=O (stereo partly drawn) [I-1517, Ac-PL3-Asp-Asn-B5-Asp-Asp-Ala-Ala-Phe-Leu-PyrS2-3Thi-BztA-Gln-NH2] | 32 | > 20 |  | 
7 | CC(=O)N1CCC[C@]12CC=CCCCC1(CCCC=CCCCOC(=O)N3CC[C@@](C(=O)N[C@@H](Cc4ccsc4)C(=O)N[C@@H](Cc4csc5ccccc45)C(=O)N[C@@H](CCC(N)=O)C(N)=O)(C3)NC(=O)[C@H](CC(C)C)NC(=O)[C@H](Cc3ccccc3)NC(=O)[C@H](C)NC(=O)[C@H](C)NC(=O)[C@H](Cn3cc(CCC(=O)O)nn3)NC(=O)[C@H](CC(=O)O)NC1=O)NC(=O)[C@H](CC(C)(C)C)NC(=O)[C@H](CC(=O)O)NC2=O (stereo partly drawn) [I-2082, Ac-PL3-Asp-Npg-B5-Asp-[CH2CH2CO2H]TriAzDap-Ala-Ala-Phe-Leu-PyrS2-3Thi-BztA-Gln-NH2] | 5 |  | 7.7 | 
8 | CC(=O)N1CCC[C@]12CC=CCCCCC1(CCCCC=CCCCOC(=O)N3CC[C@@](C(=O)N[C@@H](Cc4ccccc4C(F)(F)F)C(=O)N[C@@H](Cc4csc5ccccc45)C(=O)N[C@@H](C)C(N)=O)(C3)NC(=O)[C@H](CC(C)C)NC(=O)[C@H](Cc3ccccc3)NC(=O)[C@H](C)NC(=O)[C@H](CCC(N)=O)NC(=O)[C@H](Cc3cccc(C(=O)O)c3)NC(=O)[C@H](CC(=O)O)NC1=O)NC(=O)[C@H](CC(C)(C)C)NC(=O)[C@H](CC(=O)O)NC2=O (stereo partly drawn) [I-2517, Ac-PL3-Asp-Npg-B6-Asp-3COOHF-Gln-Ala-Phe-Leu-PyrS2-2F3MeF-BztA-Ala-NH2] | 61 | 30 |  | 
9 | CC(=O)N1CCC[C@]12CC=CCCCC1(CCCC=CCCCOC(=O)N3CC[C@@](C(=O)N[C@@H](Cc4ccccc4C(F)(F)F)C(=O)N[C@@H](Cc4csc5ccccc45)C(=O)N[C@@H](CCC(=O)N(C)C)C(N)=O)(C3)NC(=O)[C@H](CCC(=O)N3CCOCC3)NC(=O)[C@H](Cc3ccccc3)NC(=O)[C@H](C)NC(=O)[C@H](C)NC(=O)[C@H](Cc3cccc(C(=O)O)c3)NC(=O)[C@H](CC(=O)O)NC1=O)NC(=O)[C@H](CC(C)(C)C)NC(=O)[C@H](CC(=O)O)NC2=O (stereo partly drawn) [I-2538, Ac-PL3-Asp-Npg-B5-Asp-3COOHF-Ala-Ala-Phe-MorphGln-PyrS2-2F3MeF-BztA-Me2Gln-NH2] | 14 | 3.5 |  | 
10 | CC(=O)N1CCC[C@]12CC=CCCCC1(CCCC=CCCCCCC[C@@](C)(C(=O)N[C@@H](Cc3ccsc3)C(=O)N[C@@H](Cc3csc4ccccc34)C(=O)N[C@@H](CCC(N)=O)C(N)=O)NC(=O)[C@H](CC(N)=O)NC(=O)[C@H](Cc3ccccc3)NC(=O)[C@H](C)NC(=O)[C@H](C)NC(=O)[C@H](CN(CCCC(F)(F)F)CC(=O)O)NC(=O)[C@H](CC(=O)O)NC1=O)NC(=O)[C@H](CC(C)(C)C)NC(=O)[C@H](CC(=O)O)NC2=O (stereo partly drawn) [I-1454, Ac-PL3-Asp-Npg-B5-Asp-[Tfb]GA-Ala-Ala-Phe-Asn-S8-3Thi-BztA-Gln-NH2] | 22 | 26.8 |  | 22
11 | CC(=O)N1CCC[C@]12CC=CCCCC1(CCCC=CCCCOC(=O)N3CC[C@@](C(=O)N[C@@H](Cc4ccsc4)C(=O)N[C@@H](Cc4csc5ccccc45)C(=O)N[C@@H](CCC(N)=O)C(N)=O)(C3)NC(=O)[C@H](CC(C)C)NC(=O)[C@H](Cc3ccccc3)NC(=O)[C@H](C)NC(=O)[C@H](C)NC(=O)[C@H](CC(=O)O)NC(=O)[C@H](CC(=O)O)NC1=O)NC(=O)[C@H]([C@@H](C)O)NC(=O)[C@H](CC(=O)O)NC2=O (stereo partly drawn) [I-1515, Ac-PL3-Asp-Thr-B5-Asp-Asp-Ala-Ala-Phe-Leu-PyrS2-3Thi-BztA-Gln-NH2] | 24 | > 20 |  | 
12 | CC(=O)N1CCC[C@]12CC=CCCCC1(CCCC=CCCCOC(=O)N3CC[C@@](C(=O)N[C@@H](Cc4ccsc4)C(=O)N[C@@H](Cc4csc5ccccc45)C(=O)N[C@@H](CCC(N)=O)C(N)=O)(C3)NC(=O)[C@H](CC(C)C)NC(=O)[C@H](Cc3ccccc3)NC(=O)[C@H](C)NC(=O)[C@H](C)NC(=O)[C@H](CCC(N)=O)NC(=O)[C@H](CC(=O)O)NC1=O)NC(=O)[C@H](CC(C)(C)C)NC(=O)[C@H](CC(=O)O)NC2=O (stereo partly drawn) [I-1440, Ac-PL3-Asp-Npg-B5-Asp-Gln-Ala-Ala-Phe-Leu-PyrS2-3Thi-BztA-Gln-NH2] | 26 | 20.7 |  | 
13 | CC(=O)N1CCC[C@]12CC=CCCCC1(CCCC=CCCCCCC[C@@](C)(C(=O)N[C@@H](Cc3ccccc3)C(=O)N[C@@H](Cc3csc4ccccc34)C(=O)N[C@@H](CCC(N)=O)C(N)=O)NC(=O)[C@H](CCC(N)=O)NC(=O)[C@H](Cc3ccccc3)NC(=O)[C@H](C)NC(=O)[C@H](C)NC(=O)[C@H](CCC(=O)O)NC(=O)[C@H](CC(=O)O)NC1=O)NC(=O)[C@H](CCO)NC(=O)[C@H](CC(=O)O)NC2=O (stereo partly drawn) [I-1544, Ac-PL3-Asp-Hse-B5-Asp-Glu-Ala-Ala-Phe-Gln-S8-Phe-BztA-Gln-NH2] | 61 | > 20 |  | 
